Results from ChEMBL document CHEMBL1201862, “PubChem BioAssay data set” (2004).
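Following 48 hours of exposure in 96-well plates, responses at five concentrations were used to interpolate endpoints linearly. GI50 = concentration required for 50% inhibition of growth.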 Calls of active or inactive are those of the source. No stated cut-off is given here; in the data, active = GI50 up to about 1.1 µM and inactive = higher.

Legend:
Assay in all cases: growth of human tumour cells (NCI), 48 h
786-0 = test system: 786-0
A498 = test system: A498
A549 = test system: A549
ACHN = test system: ACHN
CAKI-1 = test system: CAKI-1
CCRF-CEM = test system: CCRF-CEM
COLO 205 = test system: COLO 205
DU-145 = test system: DU-145
EKVX = test system: EKVX
HCC 2998 = test system: HCC 2998
HCT-116 = test system: HCT-116
HCT-15 = test system: HCT-15
HL-60 = test system: HL-60
HOP-62 = test system: HOP-62
HOP-92 = test system: HOP-92
HT-29 = test system: HT-29
Hs-578T = test system: Hs-578T
IGROV-1 = test system: IGROV-1
KM12 = test system: KM12
LOX IMVI = test system: LOX IMVI
M14 = test system: M14
MCF7 = test system: MCF7
MDA-MB-231 = test system: MDA-MB-231
MDA-N = test system: MDA-N
MOLT-4 = test system: MOLT-4
Malme-3M = test system: Malme-3M
NCI-H226 = test system: NCI-H226
NCI-H23 = test system: NCI-H23
NCI-H460 = test system: NCI-H460
NCI-H522 = test system: NCI-H522
NCI/ADR-RES = test system: NCI/ADR-RES
OVCAR-3 = test system: OVCAR-3
OVCAR-4 = test system: OVCAR-4
OVCAR-5 = test system: OVCAR-5
OVCAR-8 = test system: OVCAR-8
PC-3 = test system: PC-3
RXF 393 = test system: RXF 393
SF-268 = test system: SF-268
SF-295 = test system: SF-295
SF-539 = test system: SF-539
SK-MEL-28 = test system: SK-MEL-28
SK-MEL-2 = test system: SK-MEL-2
SK-MEL-5 = test system: SK-MEL-5
SK-OV-3 = test system: SK-OV-3
SN12C = test system: SN12C
SNB-19 = test system: SNB-19
SR = test system: SR
SW-620 = test system: SW-620
T47D = test system: T47D
TK-10 = test system: TK-10
UACC-257 = test system: UACC-257
UACC-62 = test system: UACC-62
K562 = test system: K562
MDA-MB-435 = test system: MDA-MB-435
RPMI-8226 = test system: RPMI-8226
SNB-75 = test system: SNB-75
U-251 = test system: U-251
UO-31 = test system: UO-31

`CSC(SC)=C(C(=O)O)P(=O)(O)O` was tested, and the GI50 (786-0) was > 100 µM (inactive), the GI50 (A498) was > 100 µM (inactive) and the GI50 (A549) was > 100 µM (inactive). For the same compound, the GI50 (ACHN) was > 100 µM (inactive), the GI50 (CAKI-1) was > 100 µM (inactive) and the GI50 (CCRF-CEM) was > 100 µM (inactive). The GI50 (COLO 205) was > 100 µM (inactive), the GI50 (DU-145) was > 100 µM (inactive) and the GI50 (EKVX) was > 100 µM (inactive). The GI50 (HCC 2998) was > 100 µM (inactive), the GI50 (HCT-116) was > 100 µM (inactive) and the GI50 (HCT-15) was > 100 µM. The GI50 (HL-60) was > 100 µM (inactive), the GI50 (HOP-62) was > 100 µM (inactive) and the GI50 (HOP-92) was > 100 µM (inactive). For the same compound, the GI50 (HT-29) was > 100 µM (inactive), the GI50 (Hs-578T) was > 100 µM (inactive) and the GI50 (IGROV-1) was > 100 µM (inactive). The GI50 (KM12) was > 100 µM (inactive), the GI50 (LOX IMVI) was > 100 µM (inactive) and the GI50 (M14) was > 100 µM (inactive). The GI50 (MCF7) was > 100 µM (inactive), the GI50 (MDA-MB-231) was > 100 µM (inactive) and the GI50 (MDA-N) was > 100 µM (inactive). The GI50 (MOLT-4) was > 100 µM (inactive), the GI50 (Malme-3M) was > 100 µM (inactive) and the GI50 (NCI-H226) was > 100 µM (inactive). The GI50 (NCI-H23) was > 100 µM (inactive), the GI50 (NCI-H460) was > 100 µM (inactive) and the GI50 (NCI-H522) was > 100 µM (inactive). For the same compound, the GI50 (NCI/ADR-RES) was > 100 µM (inactive), the GI50 (OVCAR-3) was > 100 µM (inactive) and the GI50 (OVCAR-4) was > 100 µM (inactive). For the same compound, the GI50 (OVCAR-5) was > 100 µM (inactive), the GI50 (OVCAR-8) was > 100 µM (inactive) and the GI50 (PC-3) was > 100 µM (inactive). The GI50 (RXF 393) was > 100 µM (inactive), the GI50 (SF-268) was > 100 µM (inactive) and the GI50 (SF-295) was > 100 µM (inactive). The GI50 (SF-539) was > 100 µM (inactive), the GI50 (SK-MEL-28) was > 100 µM (inactive) and the GI50 (SK-MEL-2) was > 100 µM (inactive). The GI50 (SK-MEL-5) was > 100 µM (inactive), the GI50 (SK-OV-3) was > 100 µM (inactive) and the GI50 (SN12C) was > 100 µM (inactive). The GI50 (SNB-19) was > 100 µM (inactive), the GI50 (SR) was > 100 µM (inactive) and the GI50 (SW-620) was > 100 µM (inactive). For the same compound, the GI50 (T47D) was > 100 µM (inactive), the GI50 (TK-10) was > 100 µM (inactive) and the GI50 (UACC-257) was > 100 µM (inactive). The GI50 (UACC-62) was > 100 µM (inactive).
In the case of `CC1(C)OC(=O)C(C#N)=C1C[n+]1ccccc1`, the GI50 (786-0) is reported as > 10 µM (inactive), the GI50 (A498) is reported as > 10 µM (inactive) and the GI50 (ACHN) is reported as > 10 µM (inactive). The GI50 (CAKI-1) was > 10 µM (inactive), the GI50 (CCRF-CEM) was > 10 µM (inactive) and the GI50 (COLO 205) was > 10 µM (inactive). For the same compound, the GI50 (DU-145) was > 10 µM (inactive), the GI50 (EKVX) was > 10 µM (inactive) and the GI50 (HCC 2998) was > 10 µM (inactive). The GI50 (HCT-15) was > 10 µM, the GI50 (HL-60) was > 10 µM (inactive) and the GI50 (HOP-62) was > 10 µM (inactive). For the same compound, the GI50 (HOP-92) was > 10 µM (inactive), the GI50 (HT-29) was > 10 µM (inactive) and the GI50 (Hs-578T) was > 10 µM (inactive). For the same compound, the GI50 (IGROV-1) was > 10 µM (inactive), the GI50 (K562) was > 10 µM (inactive) and the GI50 (KM12) was > 10 µM (inactive). For the same compound, the GI50 (LOX IMVI) was > 10 µM (inactive), the GI50 (M14) was > 10 µM (inactive) and the GI50 (MCF7) was > 10 µM (inactive). For the same compound, the GI50 (MDA-MB-231) was > 10 µM (inactive), the GI50 (MDA-MB-435) was > 10 µM (inactive) and the GI50 (MDA-N) was > 10 µM (inactive). For the same compound, the GI50 (MOLT-4) was > 10 µM (inactive), the GI50 (Malme-3M) was > 10 µM (inactive) and the GI50 (NCI-H226) was > 10 µM (inactive). For the same compound, the GI50 (NCI-H23) was > 10 µM (inactive), the GI50 (NCI-H460) was > 10 µM (inactive) and the GI50 (NCI-H522) was > 10 µM (inactive). For the same compound, the GI50 (NCI/ADR-RES) was > 10 µM (inactive), the GI50 (OVCAR-3) was > 10 µM (inactive) and the GI50 (OVCAR-4) was > 10 µM (inactive). For the same compound, the GI50 (OVCAR-5) was > 10 µM (inactive), the GI50 (OVCAR-8) was > 10 µM (inactive) and the GI50 (PC-3) was > 10 µM (inactive). The GI50 (RPMI-8226) was > 10 µM (inactive), the GI50 (RXF 393) was > 10 µM (inactive) and the GI50 (SF-268) was > 10 µM (inactive). The GI50 (SF-295) was > 10 µM (inactive), the GI50 (SF-539) was > 10 µM (inactive) and the GI50 (SK-MEL-28) was > 10 µM (inactive). For the same compound, the GI50 (SK-MEL-2) was > 10 µM (inactive), the GI50 (SK-MEL-5) was > 10 µM (inactive) and the GI50 (SK-OV-3) was > 10 µM (inactive). The GI50 (SN12C) was > 10 µM (inactive), the GI50 (SNB-19) was > 10 µM (inactive) and the GI50 (SNB-75) was > 10 µM (inactive). The GI50 (SR) was > 10 µM (inactive), the GI50 (SW-620) was > 10 µM (inactive) and the GI50 (T47D) was > 10 µM (inactive). For the same compound, the GI50 (TK-10) was > 10 µM (inactive), the GI50 (U-251) was > 10 µM (inactive) and the GI50 (UACC-257) was > 10 µM (inactive). For the same compound, the GI50 (UO-31) was > 10 µM (inactive).
For `COC(=O)C1CCC(=O)N1CN(C(C)=O)c1ccccc1` (stereo not drawn), the GI50 (786-0) was > 100 µM (inactive), the GI50 (A498) was > 100 µM (inactive) and the GI50 (A549) was > 100 µM (inactive). For the same compound, the GI50 (ACHN) was > 100 µM (inactive), the GI50 (CAKI-1) was > 100 µM (inactive) and the GI50 (CCRF-CEM) was > 100 µM (inactive). The GI50 (COLO 205) was > 100 µM (inactive), the GI50 (DU-145) was > 100 µM (inactive) and the GI50 (EKVX) was > 100 µM (inactive). The GI50 (HCT-116) was > 100 µM (inactive), the GI50 (HCT-15) was > 100 µM and the GI50 (HL-60) was > 100 µM (inactive). For the same compound, the GI50 (HOP-62) was > 100 µM (inactive), the GI50 (HOP-92) was > 100 µM (inactive) and the GI50 (HT-29) was > 100 µM (inactive). For the same compound, the GI50 (Hs-578T) was > 100 µM (inactive), the GI50 (IGROV-1) was > 100 µM (inactive) and the GI50 (K562) was > 100 µM (inactive). For the same compound, the GI50 (KM12) was > 100 µM (inactive), the GI50 (LOX IMVI) was > 100 µM (inactive) and the GI50 (M14) was > 100 µM (inactive). For the same compound, the GI50 (MCF7) was > 100 µM (inactive), the GI50 (MDA-MB-231) was > 100 µM (inactive) and the GI50 (MDA-MB-435) was > 100 µM (inactive). The GI50 (MDA-N) was > 100 µM (inactive), the GI50 (MOLT-4) was > 100 µM (inactive) and the GI50 (Malme-3M) was > 100 µM (inactive). For the same compound, the GI50 (NCI-H226) was > 100 µM (inactive), the GI50 (NCI-H23) was > 100 µM (inactive) and the GI50 (NCI-H460) was > 100 µM (inactive). The GI50 (NCI-H522) was > 100 µM (inactive), the GI50 (NCI/ADR-RES) was > 100 µM (inactive) and the GI50 (OVCAR-3) was > 100 µM (inactive). For the same compound, the GI50 (OVCAR-4) was > 100 µM (inactive), the GI50 (OVCAR-5) was > 100 µM (inactive) and the GI50 (OVCAR-8) was > 100 µM (inactive). The GI50 (PC-3) was > 100 µM (inactive), the GI50 (RPMI-8226) was > 100 µM (inactive) and the GI50 (SF-268) was > 100 µM (inactive). The GI50 (SF-295) was > 100 µM (inactive), the GI50 (SF-539) was > 100 µM (inactive) and the GI50 (SK-MEL-28) was > 100 µM (inactive). For the same compound, the GI50 (SK-MEL-2) was > 100 µM (inactive), the GI50 (SK-MEL-5) was > 100 µM (inactive) and the GI50 (SK-OV-3) was > 100 µM (inactive). The GI50 (SN12C) was > 100 µM (inactive), the GI50 (SNB-19) was > 100 µM (inactive) and the GI50 (SNB-75) was > 100 µM (inactive). The GI50 (SR) was 3.39 µM (inactive), the GI50 (SW-620) was > 100 µM (inactive) and the GI50 (T47D) was > 100 µM (inactive). The GI50 (TK-10) was > 100 µM (inactive), the GI50 (U-251) was > 100 µM (inactive) and the GI50 (UACC-257) was > 100 µM (inactive). The GI50 (UACC-62) was > 100 µM (inactive) and the GI50 (UO-31) was > 100 µM (inactive).
